Results published in ChEMBL document CHEMBL5032527, “N-(4-acetamidophenyl)-5-acetylfuran-2-carboxamide as a novel orally available diuretic that targets urea transporters with improved PD and PK properties” (Eur J Med Chem, 2021).
pIC50: −log10 of the molar value. Activity calls are given as the source filed them. The calls are words filed in the database; no cut-off is given here.

Tests used:
Urea transporter 1 [1] = target: T1, Urea transporter 1 (Mus musculus, UniProt Q8VHL0); experiment: Inhibition of mouse UT-B expressed in MDCK cells; type: cell-based
T1 sequence (Q8VHL0 whole entry): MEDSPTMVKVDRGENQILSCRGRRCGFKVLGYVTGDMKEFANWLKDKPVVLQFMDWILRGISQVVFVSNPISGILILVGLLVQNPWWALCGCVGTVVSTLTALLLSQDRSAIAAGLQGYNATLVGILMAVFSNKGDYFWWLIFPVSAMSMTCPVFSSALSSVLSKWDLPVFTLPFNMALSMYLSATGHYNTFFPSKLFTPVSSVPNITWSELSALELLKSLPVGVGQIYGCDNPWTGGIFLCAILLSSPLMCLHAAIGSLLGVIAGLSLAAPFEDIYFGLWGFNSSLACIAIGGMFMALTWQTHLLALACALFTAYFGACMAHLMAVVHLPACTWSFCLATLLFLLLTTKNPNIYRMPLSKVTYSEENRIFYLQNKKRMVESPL

Urea transporter 1 [2] = target: T2, Urea transporter 1 (Rattus norvegicus, UniProt P97689); experiment: Inhibition of rat UT-B expressed in MDCK cells; type: cell-based
T2 sequence (P97689 whole entry): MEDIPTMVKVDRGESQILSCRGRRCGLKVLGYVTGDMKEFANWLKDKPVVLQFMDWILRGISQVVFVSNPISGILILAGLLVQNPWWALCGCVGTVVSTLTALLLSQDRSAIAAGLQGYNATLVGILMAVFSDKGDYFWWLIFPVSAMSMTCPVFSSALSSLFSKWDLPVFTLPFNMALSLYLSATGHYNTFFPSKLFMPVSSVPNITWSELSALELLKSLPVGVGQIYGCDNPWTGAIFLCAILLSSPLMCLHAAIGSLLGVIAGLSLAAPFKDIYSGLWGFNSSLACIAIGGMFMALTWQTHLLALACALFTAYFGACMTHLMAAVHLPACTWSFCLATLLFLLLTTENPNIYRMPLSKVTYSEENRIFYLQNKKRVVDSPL

Rattus norvegicus [3] = experiment: Diuretic activity in Sprague-Dawley rat assessed as increase in urine volume at 100 mg/kg, IG after 2 hrs; type: functional, organism-based
Mus musculus [4] = species: Mus musculus; experiment: Diuretic activity in mouse assessed as reduction in urine osmolality; type: functional, organism-based
Rattus norvegicus [5] = species: Rattus norvegicus; experiment: Diuretic activity in IG treated Sprague-Dawley rat assessed as reduction in urine osmolality; type: functional
[6] = Bioavailability in Sprague-Dawley rat at 100 mg/kg, po by LC-MS/MS analysis; type: ADME, organism-based; conditions: in vivo
[7] = Cmax in Sprague-Dawley rat at 100 mg/kg, po by LC-MS/MS analysis; type: ADME, organism-based; parameters: route oral, dose 100 mg/kg; conditions: in vivo
Rattus norvegicus [8] = experiment: Diuretic activity in Sprague-Dawley rat assessed as increase in urine volume at 100 mg/kg, IG; type: functional, organism-based; conditions: TDE = time-dependent effect
Rattus norvegicus [9] = experiment: Diuretic activity in Sprague-Dawley rat assessed as increase in urine volume at 50 mg/kg, IG after 2 hrs; type: functional, organism-based
MDCK [10] = experiment: Inhibition of rat UT-A1 expressed in MDCK cells assessed as inhibition of urea transport at 8 uM; type: cell-based
[11] = MRT in Sprague-Dawley rat at 100 mg/kg, po by LC-MS/MS analysis; type: ADME, organism-based; conditions: in vivo
[12] = target: Voltage-gated inwardly rectifying potassium channel KCNH2 (Homo sapiens, UniProt Q12809); experiment: Inhibition of hERG; conditions: read-out: INH
in vivo = conditions: Sprague-Dawley, rat, po, 100 mg/kg
[13] = Metabolic stability in Sprague-Dawley rat plasma assessed as percentage of compound remaining after 240 mins by LC-MS/MS analysis; type: ADME, cell-free; conditions: read-out: Stability
Mus musculus [14] = experiment: Diuretic activity in mouse assessed as increase in urine output at 100 mg/kg, IG measured after 7 days; type: functional, organism-based; conditions: time 7.0 day
Mus musculus [15] = species: Mus musculus; experiment: Diuretic activity in mouse assessed as increase in urine volume; type: functional, organism-based
MDCK [16] = experiment: Cytotoxicity against MDCK cells assessed as reduction in cell viability at 400 uM measured by CCK-8 assay; type: cell-based, Canis lupus familiaris; conditions: dog
[17] = Metabolic stability in Sprague-Dawley rat liver microsomes assessed as percentage of compound remaining after 240 mins by LC-MS/MS analysis; type: ADME, Microsome; conditions: read-out: Stability
[18] = target: T3, Urea transporter 1 (Rattus norvegicus) (UniProt P97689); experiment: Inhibition of rat UT-B expressed in MDCK cells assessed as inhibition of urea transport at 8 uM; type: cell-based
T3 sequence (whole entry): T2 sequence (P97689 whole entry)

[19] = AUC (0 to t) in Sprague-Dawley rat at 100 mg/kg, po by LC-MS/MS analysis; type: ADME, organism-based; parameters: dose 100 mg/kg; conditions: in vivo
Rattus norvegicus [20] = experiment: Diuretic activity in Sprague-Dawley rat assessed as increase in urine volume at 100 mg/kg, IG after 4 hrs; type: functional, organism-based
[21] = AUC (0 to infinity) in Sprague-Dawley rat at 100 mg/kg, po by LC-MS/MS analysis; type: ADME, organism-based; parameters: route oral, time infinity, dose 100 mg/kg; conditions: in vivo
[22] = Half life in Sprague-Dawley rat at 100 mg/kg, po by LC-MS/MS analysis; type: ADME, organism-based; conditions: in vivo
MDCK [23] = experiment: Cytotoxicity against MDCK cells assessed as reduction in cell viability at 80 uM measured by CCK-8 assay; type: cell-based, Canis lupus familiaris; conditions: dog

Sequence of Voltage-gated inwardly rectifying potassium channel KCNH2 (Q12809 whole entry): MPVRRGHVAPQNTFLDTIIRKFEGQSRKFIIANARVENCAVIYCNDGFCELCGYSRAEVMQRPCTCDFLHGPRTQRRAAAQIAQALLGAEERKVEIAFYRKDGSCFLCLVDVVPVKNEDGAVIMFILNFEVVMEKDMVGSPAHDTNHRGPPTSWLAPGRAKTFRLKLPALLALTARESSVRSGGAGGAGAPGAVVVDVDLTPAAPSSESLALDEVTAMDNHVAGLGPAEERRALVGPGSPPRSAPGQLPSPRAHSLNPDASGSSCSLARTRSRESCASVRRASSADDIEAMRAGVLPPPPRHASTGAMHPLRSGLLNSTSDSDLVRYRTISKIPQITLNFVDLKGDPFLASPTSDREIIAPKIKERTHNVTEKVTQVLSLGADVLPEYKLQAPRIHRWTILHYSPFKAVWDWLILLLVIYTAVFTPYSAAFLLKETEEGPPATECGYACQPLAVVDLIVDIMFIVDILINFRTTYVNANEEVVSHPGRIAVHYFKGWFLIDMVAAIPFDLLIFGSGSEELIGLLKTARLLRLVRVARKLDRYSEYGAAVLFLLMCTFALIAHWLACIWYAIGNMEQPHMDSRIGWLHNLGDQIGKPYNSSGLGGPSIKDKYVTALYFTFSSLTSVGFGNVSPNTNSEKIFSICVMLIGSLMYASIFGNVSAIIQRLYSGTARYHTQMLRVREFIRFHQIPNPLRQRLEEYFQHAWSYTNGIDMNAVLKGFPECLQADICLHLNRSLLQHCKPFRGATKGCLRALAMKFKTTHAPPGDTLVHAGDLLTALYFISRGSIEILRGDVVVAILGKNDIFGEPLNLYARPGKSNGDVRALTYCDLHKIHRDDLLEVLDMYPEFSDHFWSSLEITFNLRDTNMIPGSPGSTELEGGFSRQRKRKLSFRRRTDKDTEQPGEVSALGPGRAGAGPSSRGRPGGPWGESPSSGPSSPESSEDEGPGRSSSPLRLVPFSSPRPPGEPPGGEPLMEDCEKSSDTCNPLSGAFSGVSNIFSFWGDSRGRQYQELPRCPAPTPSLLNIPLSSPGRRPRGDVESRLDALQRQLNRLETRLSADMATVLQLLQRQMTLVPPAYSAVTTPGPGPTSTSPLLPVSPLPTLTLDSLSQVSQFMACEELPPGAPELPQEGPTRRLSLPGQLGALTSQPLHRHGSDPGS

Row | SMILES | pIC50 (Urea transporter 1 [1]) | pIC50 (Urea transporter 1 [2]) | also measured
1 | O=C(Nc1cccc2[nH]c(=O)ccc12)c1ccc([N+](=O)[O-])o1 | < 5.00 | < 5.00 | 
2 | CC(=O)Nc1ccc(NC(=O)c2ccc(C(C)=O)o2)cc1 |  |  | Activity (Rattus norvegicus [3]): Active; Activity (Mus musculus [4]): Active; fold change (FC) (Rattus norvegicus [5]): 10; bioavailability [6]: 15.8%; Cmax [7]: 1240 ng/mL; Activity (Rattus norvegicus [8]): Tde; Activity (Rattus norvegicus [9]): Active; inhibition (MDCK [10]): 84.4%; MRT [11]: 5.45 h; pIC50 [12]: < 4.00; Tmax (in vivo): 0.21 h; remaining at 4 h [13]: 20%; Activity (Mus musculus [14]): Active; Activity (Mus musculus [15]): Active; Activity (MDCK [16]): Toxic; remaining at 4 h [17]: 20%; inhibition [18]: 89.6%; AUC(0-t) [19]: 6840 ng·h/mL
3 | O=C(Nc1cccc2ccc(=O)[nH]c12)c1ccc([N+](=O)[O-])o1 | < 5.00 | 5.22 | 
4 | CC(=O)Nc1ccc(NC(=O)c2ccc([N+](=O)[O-])o2)cc1 |  | 5.85 | Activity (Rattus norvegicus [20]): inactive; AUC(0-inf) [21]: 82.5 ng·h/mL; bioavailability [6]: 4.38%; Cmax [7]: 74.3 ng/mL; t1/2 [22]: 0.93 h; inhibition (MDCK [10]): 102%; MRT [11]: 1.51 h; remaining at 4 h [13]: 20%; remaining at 4 h [17]: 20%; AUC(0-t) [19]: 78.1 ng·h/mL
5 | O=C(Nc1ccc2[nH]c(=O)ccc2c1)c1ccc([N+](=O)[O-])o1 | 5.63 | 5.91 | 
6 | CCS(=O)(=O)Nc1ccc(NC(=O)c2ccc([N+](=O)[O-])o2)cc1 | 6.08 | 6.55 | 
7 | CC(=O)Nc1ccc(NC(=O)c2ccc(C(=O)C(C)(C)C)o2)cc1 | < 5.00 | < 5.00 | 
8 | O=C1CCc2cc(NC(=O)c3ccc([N+](=O)[O-])o3)ccc2N1 | 5.66 | 5.97 | 
9 | O=C1Cc2cc(NC(=O)c3ccc([N+](=O)[O-])o3)ccc2N1 | 5.30 | 5.50 | 
10 | CC(=O)Nc1ccc(NC(=O)c2ccc(F)o2)cc1 | < 5.00 | 5.19 | 
11 | CC(=O)c1ccc(C(=O)Nc2ccc(NS(=O)(=O)c3ccccc3)cc2)o1 | 6.80 | 6.82 | Activity (MDCK [23]): Toxic
12 | CC(=O)Nc1ccc(NC(=O)c2ccc(C(F)F)o2)cc1 | < 5.00 | < 5.00 | 
13 | CC(=O)Nc1ccc(NC(=O)c2ccc(C(=O)c3ccccc3)o2)cc1 | 5.01 | < 5.00 | 
14 | O=C(Nc1ccc2ccc(=O)[nH]c2c1)c1ccc([N+](=O)[O-])o1 | 5.82 | 6.22 | 

Now from value to compound, other results behind:

Row | pIC50 (Urea transporter 1 [1]) | pIC50 (Urea transporter 1 [2]) | SMILES | also measured
15 | 5.83 | 6.06 | O=C(Nc1ccc(NS(=O)(=O)c2ccccc2C(F)(F)F)cc1)c1ccc([N+](=O)[O-])o1 | 
16 | 5.98 | 6.28 | O=C(Nc1ccc(NS(=O)(=O)c2ccccc2Cl)cc1)c1ccc([N+](=O)[O-])o1 | 
17 | 6.16 | 6.37 | O=C(Nc1ccc(NS(=O)(=O)c2ccc(Cl)cc2)cc1)c1ccc([N+](=O)[O-])o1 | 
18 | 5.65 | 5.78 | O=C(Nc1ccc(NS(=O)(=O)c2cccc(C(F)(F)F)c2)cc1)c1ccc([N+](=O)[O-])o1 | 
19 | 6.62 | 6.96 | O=C(Nc1ccc(NS(=O)(=O)c2ccccc2)cc1)c1ccc([N+](=O)[O-])o1 | 
20 | 5.46 | 5.56 | O=C(Nc1ccc(NS(=O)(=O)c2ccc(C(F)(F)F)cc2)cc1)c1ccc([N+](=O)[O-])o1 | 
21 | 5.80 | 6.09 | O=C(Nc1ccc(NS(=O)(=O)c2cccc(Br)c2)cc1)c1ccc([N+](=O)[O-])o1 | 
22 | 5.88 | 6.19 | O=C(Nc1ccc(NS(=O)(=O)c2ccc(F)cc2)cc1)c1ccc([N+](=O)[O-])o1 | 
23 | 5.88 | 6.18 | O=C(Nc1ccc(NS(=O)(=O)c2cccc(F)c2)cc1)c1ccc([N+](=O)[O-])o1 | 
24 | 5.77 | 5.98 | O=C(Nc1ccc(NS(=O)(=O)c2ccccc2F)cc1)c1ccc([N+](=O)[O-])o1 | 
25 | 6.00 | 6.12 | O=C(Nc1ccc(NS(=O)(=O)c2cccc(Cl)c2)cc1)c1ccc([N+](=O)[O-])o1 | 
